In the supplement of paper PMC10307832:

Key:
Assay in all cases: relative viability (nuclei count vs DMSO), 5 days (fraction); higher = more cells survive
ABC-1 = tested on: ABC-1
Procedure, shortened: (§1)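 For relative viability, nuclei counts in treated wells were divided by those in vehicle wells. Lung cancer cell lines had been pin-tool dosed in 1536-well plates the day after seeding and cultured for 5 days, then fixed and stained in one step (final 0.05% Triton X-100, 1% formaldehyde, 1 ug/ml Hoechst) and imaged at 4×. Doses were one drug alone or a fixed anchor-drug dose plus five library-drug doses (not always all listed) in √10 steps, and values are duplicate-plate medians.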

Calu-6 = tested on: Calu-6
Procedure, shortened: as §1

NCI-H1703 = tested on: NCI-H1703
Procedure, shortened: as §1

NCI-H1651 = tested on: NCI-H1651
Procedure, shortened: as §1

EBC-1 = tested on: EBC-1
Procedure, shortened: as §1

NCI-H1299 = tested on: NCI-H1299
Procedure, shortened: as §1

COR-L23 = tested on: COR-L23
Procedure, shortened: as §1

IA-LM = tested on: IA-LM
Procedure, shortened: as §1

A549 = tested on: A549
Procedure, shortened: as §1

NCI-H1437 = tested on: NCI-H1437
Procedure, shortened: as §1

SK-MES-1 = tested on: SK-MES-1
Procedure, shortened: as §1

SW 1573 = tested on: SW 1573
Procedure, shortened: as §1

**Q.** Which relative viability (ABC-1; first compound 0.04 µM) does the source give for `Cc1sc2c(c1C)C(c1ccc(Cl)cc1)=N[C@@H](CC(=O)OC(C)(C)C)c1nnc(C)n1-2` [JQ1] + C[C@]1(O)C[C@@H](c2nc(-c3ccc4ccc(-c5ccccc5)nc4c3)c3c(N)nccn32)C1 [Linsitinib] (partner 1 µM) here?
**A.** 0.716

**Q.** And the relative viability (ABC-1; first compound 0.1265 µM)?
**A.** 0.772

**Q.** What about the relative viability (ABC-1; first compound 0.4 µM) of the same compound?
**A.** 0.564

**Q.** What about the relative viability (ABC-1; first compound 1.265 µM) of the same compound?
**A.** 0.356

**Q.** What about the relative viability (ABC-1; first compound 4 µM) of the same compound?
**A.** 0.275

**Q.** What about the relative viability (Calu-6; first compound 0.04 µM) of the same compound?
**A.** 0.931

**Q.** And the relative viability (Calu-6; first compound 0.1265 µM)?
**A.** 0.793

**Q.** And the relative viability (Calu-6; first compound 0.4 µM)?
**A.** 0.905

**Q.** And the relative viability (Calu-6; first compound 1.265 µM)?
**A.** 0.639

**Q.** What about the relative viability (Calu-6; first compound 4 µM) of the same compound?
**A.** 0.313

**Q.** What about the relative viability (NCI-H1703; first compound 0.04 µM) of the same compound?
**A.** 0.95

**Q.** What about the relative viability (NCI-H1703; first compound 0.4 µM) of the same compound?
**A.** 0.404

**Q.** What about the relative viability (NCI-H1703; first compound 1.265 µM) of the same compound?
**A.** 0.33

**Q.** What about the relative viability (NCI-H1703; first compound 4 µM) of the same compound?
**A.** 0.396

**Q.** What about the relative viability (NCI-H1651; first compound 0.04 µM) of the same compound?
**A.** 0.776

**Q.** What about the relative viability (NCI-H1651; first compound 0.1265 µM) of the same compound?
**A.** 0.871

**Q.** What about the relative viability (NCI-H1651; first compound 0.4 µM) of the same compound?
**A.** 0.797

**Q.** What about the relative viability (NCI-H1651; first compound 1.265 µM) of the same compound?
**A.** 0.433

**Q.** And the relative viability (NCI-H1651; first compound 4 µM)?
**A.** 0.468

**Q.** And the relative viability (EBC-1; first compound 0.04 µM)?
**A.** 0.8

**Q.** What about the relative viability (EBC-1; first compound 0.1265 µM) of the same compound?
**A.** 0.523

**Q.** And the relative viability (EBC-1; first compound 0.4 µM)?
**A.** 0.332

**Q.** What about the relative viability (EBC-1; first compound 1.265 µM) of the same compound?
**A.** 0.112

**Q.** And the relative viability (EBC-1; first compound 4 µM)?
**A.** 0.112

**Q.** What about the relative viability (NCI-H1299; first compound 0.04 µM) of the same compound?
**A.** 0.97

**Q.** What about the relative viability (NCI-H1299; first compound 0.1265 µM) of the same compound?
**A.** 0.781

**Q.** And the relative viability (NCI-H1299; first compound 0.4 µM)?
**A.** 0.883

**Q.** What about the relative viability (NCI-H1299; first compound 1.265 µM) of the same compound?
**A.** 0.36

**Q.** What about the relative viability (NCI-H1299; first compound 4 µM) of the same compound?
**A.** 0.238

**Q.** What about the relative viability (COR-L23; first compound 0.04 µM) of the same compound?
**A.** 0.931

**Q.** What about the relative viability (COR-L23; first compound 0.1265 µM) of the same compound?
**A.** 0.74

**Q.** And the relative viability (COR-L23; first compound 0.4 µM)?
**A.** 0.818

**Q.** What about the relative viability (COR-L23; first compound 1.265 µM) of the same compound?
**A.** 0.226

**Q.** And the relative viability (COR-L23; first compound 4 µM)?
**A.** 0.172

**Q.** What about the relative viability (IA-LM; first compound 0.04 µM) of the same compound?
**A.** 0.406

**Q.** And the relative viability (IA-LM; first compound 0.1265 µM)?
**A.** 0.098

**Q.** And the relative viability (IA-LM; first compound 0.4 µM)?
**A.** 0.153

**Q.** And the relative viability (IA-LM; first compound 1.265 µM)?
**A.** 0.106

**Q.** And the relative viability (IA-LM; first compound 4 µM)?
**A.** 0.0793

**Q.** And the relative viability (A549; first compound 0.04 µM)?
**A.** 0.613

**Q.** And the relative viability (A549; first compound 0.1265 µM)?
**A.** 0.534

**Q.** What about the relative viability (A549; first compound 0.4 µM) of the same compound?
**A.** 0.561

**Q.** What about the relative viability (A549; first compound 1.265 µM) of the same compound?
**A.** 0.314

**Q.** And the relative viability (A549; first compound 4 µM)?
**A.** 0.226

**Q.** What about the relative viability (NCI-H1437; first compound 0.04 µM) of the same compound?
**A.** 0.897

**Q.** And the relative viability (NCI-H1437; first compound 0.1265 µM)?
**A.** 0.804

**Q.** What about the relative viability (NCI-H1437; first compound 0.4 µM) of the same compound?
**A.** 0.481

**Q.** And the relative viability (NCI-H1437; first compound 1.265 µM)?
**A.** 0.228

**Q.** And the relative viability (NCI-H1437; first compound 4 µM)?
**A.** 0.18

**Q.** What about the relative viability (SK-MES-1; first compound 0.04 µM) of the same compound?
**A.** 1.02

**Q.** And the relative viability (SK-MES-1; first compound 0.1265 µM)?
**A.** 0.752

**Q.** What about the relative viability (SK-MES-1; first compound 0.4 µM) of the same compound?
**A.** 0.862

**Q.** And the relative viability (SK-MES-1; first compound 1.265 µM)?
**A.** 0.332

**Q.** And the relative viability (SK-MES-1; first compound 4 µM)?
**A.** 0.374

**Q.** And the relative viability (SW 1573; first compound 0.04 µM)?
**A.** 0.697

**Q.** What about the relative viability (SW 1573; first compound 0.1265 µM) of the same compound?
**A.** 0.789

**Q.** What about the relative viability (SW 1573; first compound 0.4 µM) of the same compound?
**A.** 0.711

**Q.** What about the relative viability (SW 1573; first compound 1.265 µM) of the same compound?
**A.** 0.339

**Q.** And the relative viability (SW 1573; first compound 4 µM)?
**A.** 0.323

**Q.** What does the source list for `Nc1ccn([C@@H]2O[C@H](CO)[C@@H](O)[C@@H]2O)c(=O)n1` [Cytarabine] + Cc1nc(NC(=O)N2CCC[C@H]2C(N)=O)sc1-c1ccnc(C(C)(C)C(F)(F)F)c1 [Alpelisib] (partner 2 µM)?
**A.** relative viability (ABC-1; first compound 0.005 µM): 1.02; relative viability (ABC-1; first compound 0.01581 µM): 1.4; relative viability (ABC-1; first compound 0.05 µM): 1.09; relative viability (ABC-1; first compound 0.1581 µM): 0.738; relative viability (ABC-1; first compound 0.5 µM): 0.55; relative viability (Calu-6; first compound 0.005 µM): 0.925; relative viability (Calu-6; first compound 0.01581 µM): 0.826; relative viability (Calu-6; first compound 0.05 µM): 0.79; relative viability (Calu-6; first compound 0.1581 µM): 0.483; relative viability (Calu-6; first compound 0.5 µM): 0.288; relative viability (NCI-H1703; first compound 0.005 µM): 0.294; relative viability (NCI-H1703; first compound 0.01581 µM): 0.22; relative viability (NCI-H1703; first compound 0.05 µM): 0.194; relative viability (NCI-H1703; first compound 0.1581 µM): 0.117; relative viability (NCI-H1703; first compound 0.5 µM): 0.143; relative viability (NCI-H1651; first compound 0.005 µM): 0.817; relative viability (NCI-H1651; first compound 0.01581 µM): 1.01; relative viability (NCI-H1651; first compound 0.05 µM): 1.17; relative viability (NCI-H1651; first compound 0.1581 µM): 0.401; relative viability (NCI-H1651; first compound 0.5 µM): 0.261; relative viability (EBC-1; first compound 0.005 µM): 0.694; relative viability (EBC-1; first compound 0.01581 µM): 0.64; relative viability (EBC-1; first compound 0.05 µM): 0.676; relative viability (EBC-1; first compound 0.1581 µM): 0.439; relative viability (EBC-1; first compound 0.5 µM): 0.248; relative viability (NCI-H1299; first compound 0.005 µM): 1.13; relative viability (NCI-H1299; first compound 0.01581 µM): 1.21; relative viability (NCI-H1299; first compound 0.05 µM): 1.13; relative viability (NCI-H1299; first compound 0.1581 µM): 1; relative viability (NCI-H1299; first compound 0.5 µM): 1.06; relative viability (COR-L23; first compound 0.005 µM): 0.63; relative viability (COR-L23; first compound 0.01581 µM): 0.472; relative viability (COR-L23; first compound 0.05 µM): 0.458; relative viability (COR-L23; first compound 0.1581 µM): 0.176; relative viability (COR-L23; first compound 0.5 µM): 0.104; relative viability (IA-LM; first compound 0.005 µM): 0.784; relative viability (IA-LM; first compound 0.01581 µM): 0.591; relative viability (IA-LM; first compound 0.05 µM): 0.701; relative viability (IA-LM; first compound 0.1581 µM): 0.259; relative viability (IA-LM; first compound 0.5 µM): 0.114; relative viability (A549; first compound 0.005 µM): 0.596; relative viability (A549; first compound 0.01581 µM): 0.479; relative viability (A549; first compound 0.05 µM): 0.399; relative viability (A549; first compound 0.1581 µM): 0.0482; relative viability (A549; first compound 0.5 µM): 0.0328; relative viability (NCI-H1437; first compound 0.005 µM): 0.666; relative viability (NCI-H1437; first compound 0.01581 µM): 0.631; relative viability (NCI-H1437; first compound 0.05 µM): 0.43; relative viability (NCI-H1437; first compound 0.1581 µM): 0.237; relative viability (NCI-H1437; first compound 0.5 µM): 0.151; relative viability (SK-MES-1; first compound 0.005 µM): 0.702; relative viability (SK-MES-1; first compound 0.01581 µM): 0.688; relative viability (SK-MES-1; first compound 0.05 µM): 0.393; relative viability (SK-MES-1; first compound 0.1581 µM): 0.243; relative viability (SK-MES-1; first compound 0.5 µM): 0.21; relative viability (SW 1573; first compound 0.005 µM): 0.793; relative viability (SW 1573; first compound 0.01581 µM): 0.602; relative viability (SW 1573; first compound 0.05 µM): 0.7; relative viability (SW 1573; first compound 0.1581 µM): 0.219; relative viability (SW 1573; first compound 0.5 µM): 0.182
